Laboratory results as given in patent US4474777A, “Benzodiazepine derivatives and their pharmaceutical use” (Hoffmann-La Roche Inc., priority 1982, dated 1984).

Experiments:
[1] = tested on: intestinal resorption of cholesterol; assay: inhibition of the intestinal resorption of cholesterol (CHORES), radioactive cholesterol test feed, faeces radioactivity; type: in vivo, normal female albino rats; details: rats, 100 μmol/kg p.o.; faeces collected for three days; untreated control = 100%
Protocol: The substances to be investigated are administered to groups each comprising 6 normal female albino rats (body weight about 70 g) by means of a probang. Immediately thereafter the animals received by means of a probang a test feed containing a radioactive cholesterol. Thereafter, the faeces is collected for three days, freeze-dried and pulverized, and an aliquot is burnt in order to determine the radioactivity of the faeces. Untreated control animals excrete about 40-50% of the radioactive cholesterol taken up with the feed. The radioactive cholesterol which is not excreted is regarded as the resorbed cholesterol, the amount of resorbed cholesterol in the untreated control animals being arbitrarily fixed as 100%. Animals which have been treated with a substance inhibiting the intestinal resorption of cholesterol show a lower resorption of radioactive cholesterol than untreated control animals. The cholesterol resorption (CHORES) is expressed in percentages of the cholesterol resorption of untreated control animals.
(§1) In the following Table there are given the results obtained with representative products provided by the invention. There are given for each of the compounds listed therein the dosage administered (in μmol/kg p.o.) as well as the cholesterol resorption (CHORES) determined in percentages of the cholesterol resorption of untreated control animals. Moreover, the Table contains information concerning the acute toxicity of the compounds investigated (LD50 in mg/kg in the case of single oral administration to mice).

[2] = acute toxicity, single oral administration to mice; details: mouse, in vivo, single oral administration (p.o.)
Description: as §1

Row | Structure (SMILES) | CHORES (cholesterol resorption in percentages of the cholesterol resorption of untreated control animals) [1] [%] | LD50 [2] [mg/kg]
1 | C[C@@H]1N=C(c2ccccc2Cl)c2c(ccc(NC(=O)NC3CCC(O)CC3)c2Br)N(C)C1=O (some centres unmarked) | 34 | 
2 | C[C@@H]1N=C(c2ccccc2Cl)c2c(ccc(NC(=O)N3CCCC(O)C3)c2Br)N(C)C1=O (some centres unmarked) | 44 | 
3 | C[C@@H]1N=C(c2ccccc2Cl)c2c(ccc(NC(=O)NCC3COC(C)(C)O3)c2Br)N(C)C1=O (some centres unmarked) | 25 | 
4 | C[C@@H]1N=C(c2ccccc2Cl)c2c(ccc(NC(=O)NC(CO)(CO)CO)c2Br)N(C)C1=O [NHC(CH2 OH)3, 1-[(S)-6-bromo-5-(o-chlorophenyl)-2,3-dihydro-1,3-dimethyl-2-oxo-1H-1,4-benzodiazepin-7-yl]-3-[2-hydroxy-1,1-bis(hydroxymethyl)ethyl]urea] | 30 | > 5000
5 | C[C@@H]1N=C(c2ccccc2Cl)c2c(ccc(NC(=O)NC(C)(CO)CO)c2Br)N(C)C1=O [NHC(CH3)(CH2 OH)2, 1-[(S)-6-bromo-5-(o-chlorophenyl)-2,3-dihydro-1,3-dimethyl-2-oxo-1H-1,4-benzodiazepin-7-yl]-3-[1,1-bis(hydroxymethyl)ethyl]urea] | 31 | > 5000
6 | C[C@@H]1N=C(c2ccccc2Cl)c2c(ccc(NC(=O)NCC(O)CO)c2Br)N(C)C1=O (stereo partly drawn) [NHCH2 CH(OH)CH2 OH, 1-[(S)-6-bromo-5-(o-chlorophenyl)-2,3-dihydro-1,3-dimethyl-2-oxo-1H-1,4-benzodiazepin-7-yl]-3-(2,3-dihydroxypropyl)urea] | 24 | 
